Results as given in patent publication US20250228865A1, “COMPOUNDS FOR ENHANCING READ THROUGH OF GENES CONTAINING PREMATURE TERMINATION CODONS AND METHODS FOR MAKING AND USING THE SAME” (Sanofi US Services Inc., priority 2022, published 2025).

Assays:
[1] = tested on: recombinant human CFTR carrying the premature stop codon (PTC) mutation R1162X; assay: CFTR-PTC mutant translation readthrough, Nanoluc tagged CFTR luminescence (R1162X cell line); assay type: cell-based; conditions: for CFTR R1162X ACTIVITY Fold 10 μM G-418: fold over 10 μM G-418, in combination with G418; for EC50: in combination with G418, 16HBE cells, read-out: CFTR R1162X ACTIVITY EC50
How it was run: (§1)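 Readthrough is the 48 h compound-induced luminescence increase scaled to that of maximal G418 (125-250 μM). Compounds run from 50 μM final in 2-fold steps, ±10 μM G418, on 16HBE lines carrying Nanoluc-tagged CFTR G542X (extracellular loop 4 tag) or R1162X (C-terminal tag), with 3 μM VX-809 present.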

[2] = tested on: recombinant human CFTR carrying the premature stop codon (PTC) mutation G542X; assay: CFTR-PTC mutant translation readthrough, Nanoluc tagged CFTR luminescence (G542X cell line); assay type: cell-based; conditions: in combination with G418, G542X cell line; for CFTR G542X ACTIVITY Fold 10 μM G-418: fold over 10 μM G-418; for EC50: 16HBE cells
How it was run: as §1

Cc1cccc(C(F)(F)F)c1COc1cnc(N2CCOC(CO)C2)nc1 (centres unmarked)
CFTR R1162X ACTIVITY Fold 10 μM G-418 [1]: A′ (A′ = ≥10X)
EC50 [1]: < 1000 nM
CFTR G542X ACTIVITY Fold 10 μM G-418 [2]: A′ (A′ = ≥10X)
EC50 [2]: < 1000 nM

C=C1NC(=O)N(c2ccc(OCc3c(Cl)cccc3Cl)cn2)C1=O
CFTR R1162X ACTIVITY Fold 10 μM G-418 [1]: B′ (B′ = ≥5X to <10X)
EC50 [1]: 1000 to 10000 nM
CFTR G542X ACTIVITY Fold 10 μM G-418 [2]: B′ (B′ = ≥5X to <10X)
EC50 [2]: 1000 to 10000 nM

Cc1cccc(C(F)(F)F)c1COc1ccc(N2C(=O)NC(C)(C)C2=O)cc1
CFTR R1162X ACTIVITY Fold 10 μM G-418 [1]: A′ (A′ = ≥10X)
EC50 [1]: < 1000 nM
CFTR G542X ACTIVITY Fold 10 μM G-418 [2]: A′ (A′ = ≥10X)
EC50 [2]: < 1000 nM

O=C1OC(CO)CN1c1ccc(CCc2c(Cl)cccc2Cl)cc1 (centres unmarked) [3-[4-[2-(2,6-dichlorophenyl)ethyl]phenyl]-5-(hydroxymethyl)oxazolidin-2-one]
CFTR R1162X ACTIVITY Fold 10 μM G-418 [1]: B′ (B′ = ≥5X to <10X)
EC50 [1]: > 10000 nM
CFTR G542X ACTIVITY Fold 10 μM G-418 [2]: C′ (C′ = <5X)
EC50 [2]: 1000 to 10000 nM

CN(C)C(=O)N1CCN(c2ncc(OCc3c(Cl)cccc3Cl)cn2)CC1
CFTR R1162X ACTIVITY Fold 10 μM G-418 [1]: A′ (A′ = ≥10X)
EC50 [1]: < 1000 nM
CFTR G542X ACTIVITY Fold 10 μM G-418 [2]: B′ (B′ = ≥5X to <10X)
EC50 [2]: < 1000 nM

CC(=O)NCC1CN(c2ncc(OCc3c(Cl)cccc3Cl)cn2)CCO1 (centres unmarked)
CFTR R1162X ACTIVITY Fold 10 μM G-418 [1]: A′ (A′ = ≥10X)
EC50 [1]: 1000 to 10000 nM
CFTR G542X ACTIVITY Fold 10 μM G-418 [2]: A′ (A′ = ≥10X)
EC50 [2]: < 1000 nM

CNC(=O)C1CCN(c2ncc(OCc3c(Cl)cccc3Cl)cn2)CC1
CFTR R1162X ACTIVITY Fold 10 μM G-418 [1]: A′ (A′ = ≥10X)
EC50 [1]: 1000 to 10000 nM
CFTR G542X ACTIVITY Fold 10 μM G-418 [2]: A′ (A′ = ≥10X)
EC50 [2]: 1000 to 10000 nM

OCc1nnc(-c2ccc(OCc3c(Cl)cccc3C(F)(F)F)cc2)o1
CFTR R1162X ACTIVITY Fold 10 μM G-418 [1]: A′ (A′ = ≥10X)
EC50 [1]: < 1000 nM
CFTR G542X ACTIVITY Fold 10 μM G-418 [2]: A′ (A′ = ≥10X)
EC50 [2]: < 1000 nM

OCc1cc(-c2ccc(OCc3c(Cl)cccc3Cl)cc2)no1 [[3-[4-[(2,6-dichlorophenyl)methoxy]phenyl]isoxazol-5-yl]methanol]
CFTR R1162X ACTIVITY Fold 10 μM G-418 [1]: A′ (A′ = ≥10X)
EC50 [1]: 1000 to 10000 nM
CFTR G542X ACTIVITY Fold 10 μM G-418 [2]: A′ (A′ = ≥10X)
EC50 [2]: 1000 to 10000 nM

CN1CC(=O)N(c2ccc(OCc3c(Cl)cccc3C(F)(F)F)cn2)C1=O
CFTR R1162X ACTIVITY Fold 10 μM G-418 [1]: C′ (C′ = <5X)
EC50 [1]: 1000 to 10000 nM
CFTR G542X ACTIVITY Fold 10 μM G-418 [2]: A′ (A′ = ≥10X)
EC50 [2]: 1000 to 10000 nM

Cc1cccc(C(F)(F)F)c1COc1cnc(-n2ccc(CO)n2)nc1
CFTR R1162X ACTIVITY Fold 10 μM G-418 [1]: A′ (A′ = ≥10X)
EC50 [1]: < 1000 nM
CFTR G542X ACTIVITY Fold 10 μM G-418 [2]: A′ (A′ = ≥10X)
EC50 [2]: < 1000 nM

OCc1nc(-c2ccc(OCc3c(Cl)cccc3Cl)cn2)no1 [[3-[5-[(2,6-dichlorophenyl)methoxy]-2-pyridyl]-1,2,4-oxadiazol-5-yl]methanol]
CFTR R1162X ACTIVITY Fold 10 μM G-418 [1]: A′ (A′ = ≥10X)
EC50 [1]: 1000 to 10000 nM
CFTR G542X ACTIVITY Fold 10 μM G-418 [2]: A′ (A′ = ≥10X)
EC50 [2]: 1000 to 10000 nM

O=C(CO)N1CCN(c2ncc(OCc3c(Cl)cccc3Cl)cn2)CC1
CFTR R1162X ACTIVITY Fold 10 μM G-418 [1]: A′ (A′ = ≥10X)
EC50 [1]: 1000 to 10000 nM
CFTR G542X ACTIVITY Fold 10 μM G-418 [2]: A′ (A′ = ≥10X)
EC50 [2]: 1000 to 10000 nM

O=C1OC(CO)CN1c1ccc(OCc2c(Cl)ccc(F)c2Cl)cc1 (centres unmarked)
CFTR R1162X ACTIVITY Fold 10 μM G-418 [1]: B′ (B′ = ≥5X to <10X)
EC50 [1]: 1000 to 10000 nM
CFTR G542X ACTIVITY Fold 10 μM G-418 [2]: A′ (A′ = ≥10X)
EC50 [2]: 1000 to 10000 nM

CCc1cccc(C(F)(F)F)c1COc1cnc(-n2ccc(CO)n2)nc1
CFTR R1162X ACTIVITY Fold 10 μM G-418 [1]: A′ (A′ = ≥10X)
EC50 [1]: < 1000 nM
CFTR G542X ACTIVITY Fold 10 μM G-418 [2]: A′ (A′ = ≥10X)
EC50 [2]: < 1000 nM

Cc1cccc(C(F)(F)F)c1COc1cnc(N2CCC(O)(c3ccccn3)CC2)nc1
CFTR R1162X ACTIVITY Fold 10 μM G-418 [1]: A′ (A′ = ≥10X)
EC50 [1]: 1000 to 10000 nM
CFTR G542X ACTIVITY Fold 10 μM G-418 [2]: A′ (A′ = ≥10X)
EC50 [2]: < 1000 nM

Cc1cccc(C(F)(F)F)c1COc1ccc(-n2cc(CO)nn2)nc1
CFTR R1162X ACTIVITY Fold 10 μM G-418 [1]: A′ (A′ = ≥10X)
EC50 [1]: < 1000 nM
CFTR G542X ACTIVITY Fold 10 μM G-418 [2]: A′ (A′ = ≥10X)
EC50 [2]: < 1000 nM
